Test results published in paper PMC5338256, “D-form KLKLLLLLKLK-NH2 peptide exerts higher antimicrobial properties than its L-form counterpart via an association with bacterial cell wall components” (Scientific Reports, 2017).
Non-standard residues stand in square brackets, D forms with d. Residues, ends and D or L forms follow the SMILES beside them.

Tests used:
S. aureus = assay: Assay for antimicrobial activity (10 min exposure, CFU); assay type: cell-based, Staphylococcus aureus (NBRC100910); conditions: for antimicrobial activity (CFU), D-form compared with L-form: 10 min at 37 °C
Description: (§1) S. aureus (NBRC100910), E. coli W3110 (NBRC12713), E. hirae (NBRC3181), C. albicans (NBRC1385), and S. Typhimurium 14028s (ATCC14028)[2] were used in this study. S. aureus, E. coli, and S. Typhimurium were grown at 37 °C with aeration in Muller-Hinton II medium (BD Biosciences). E. hirae was grown at 37 °C in LB medium (Nacalai Tesque, Inc.) containing 0.5% glucose (w/v). C. albicans was grown at room temperature with aeration in YM medium (BD Biosciences). All experiments were conducted using bacterial cells and C. albicans in the logarithmic-phase of growth.
Bacteria and C. albicans were suspended in growth medium. Peptides suspended in dimethyl sulfoxide were serially diluted in 10 mM phosphate buffer (pH 6.0) containing 130 mM sodium chloride, 0.2% bovine serum albumin as described previously. In order to examine the effects of bovine serum albumin on the assay, 10 mM phosphate buffer (pH 6.0) containing 130 mM sodium chloride, was used for the dilution of peptides. Peptide solution (500 μl) was added to 500 μl of bacteria suspensions and then the mixture was incubated at 37 °C for 10 min. In order to examine the effects of culture medium components on the assay, bacteria suspension was prepared with 10 mM phosphate buffer (pH 6.0) containing 130 mM sodium chloride. Alternatively, 500 μl of peptide solution was added to 500 μl of C. albicans suspensions and the mixture was incubated at room temperature for 10 min. The inhibitory effects of the bacterial components were analyzed by incubating 450 μl of S. aureus suspension with 500 μl of peptide solution plus 50 μl of inhibitor samples at 37 °C for 10 min. Then, the peptide/bacteria suspensions were diluted and plated onto LB agar, LB agar containing 0.5% glucose, or YM agar. After cultivation of the plates, colony forming units (CFU) in the peptide/bacteria suspension were calculated based on the average of triplicate plates.

E. hirae = assay: as above; assay type: cell-based, Enterococcus hirae (NBRC3181); conditions: 10 min at 37 °C, triplicate plates
Description: as §1
Bacteria and C. albicans were suspended in growth medium. Peptides suspended in dimethyl sulfoxide were serially diluted in 10 mM phosphate buffer (pH 6.0) containing 130 mM sodium chloride, 0.2% bovine serum albumin as described previously. In order to examine the effects of bovine serum albumin on the assay, 10 mM phosphate buffer (pH 6.0) containing 130 mM sodium chloride, was used for the dilution of peptides. […] The inhibitory effects of the bacterial components were analyzed by incubating 450 μl of S. aureus suspension with 500 μl of peptide solution plus 50 μl of inhibitor samples at 37 °C for 10 min. […] After cultivation of the plates, colony forming units (CFU) in the peptide/bacteria suspension were calculated based on the average of triplicate plates.

[1] = Calcein leakage from liposomes; assay type: biochemical; conditions: 10 min at room temperature, pH 6.0, triplicate assays
Description: Liposomes were prepared as previously described with some modifications. S. aureus-mimetic liposomes[17][26] and mammalian-mimetic liposomes[27] were prepared by combining phospholipid mixtures (cardiolipin: L-α-phosphatidyl-DL-glycerol = 1:3 (mol/mol)) and 2-dioleoyl-sn-glycero-3-phosphocholine:1,2-dioleoyl-sn-glycero-3-phosphoethanolamine:Cholesterol = 4:2:3 (mol/mol/mol)), respectively. A 50 mM calcein solution was prepared by mixing 100 mg calcein with 3.1 ml of solution A (0.3 ml of 1 M Tris-HCl (pH 7.4), 0.9 ml of 5 M sodium hydroxide, and 13.8 ml of water). The liposomes were prepared by adding 1 ml of calcein solution to the dried lipid mixtures, followed by vortexing for 10 min at room temperature. The liposome solution (1 ml) was centrifuged at 3000 × g for 10 min, and the precipitate was resuspended in 1 ml of 20 mM Tris-HCl (pH 7.4) containing 150 mM sodium chloride. The centrifugation step was repeated two more times. Finally, the precipitate was suspended in 100 μl of 20 mM Tris-HCl (pH 7.4) containing 150 mM sodium chloride.
Liposome suspensions were prepared by diluting of 1 μl of liposomes into 40 ml of 10 mM phosphate buffer (pH6.0) containing 130 mM sodium chloride. Peptides were serially diluted in 10 mM phosphate buffer (pH 6.0) containing 130 mM sodium chloride and 1% dimethyl sulfoxide. […]

CC(C)C[C@@H](NC(=O)[C@H](N)CCCCN)C(=O)N[C@H](CCCCN)C(=O)N[C@H](CC(C)C)C(=O)N[C@H](CC(C)C)C(=O)N[C@H](CC(C)C)C(=O)N[C@H](CC(C)C)C(=O)N[C@H](CC(C)C)C(=O)N[C@H](CCCCN)C(=O)N[C@H](CC(C)C)C(=O)N[C@H](CCCCN)C(N)=O [D-form KLKLLLLLKLK-NH2] (H-[dK][dL][dK][dL][dL][dL][dL][dL][dK][dL][dK]-NH2; N-terminus assumed)
antimicrobial activity relative to the standard assay condition (S. aureus; 10 min, in the absence of culture medium and bovine serum albumin): lower | antimicrobial activity (CFU), D-form compared with L-form (S. aureus; in the absence of culture medium and/or bovine serum albumin): higher antimicrobial activity | antimicrobial activity (CFU), D-form compared with L-form (S. aureus; standard assay with culture medium and 0.2% BSA, triplicate plates): higher antimicrobial activity | peptide concentration at which D-form and L-form displayed similar antimicrobial activity (S. aureus; 10 min exposure): 1.9 µg/mL | antimicrobial activity (CFU), D-form compared with L-form (E. hirae): higher antimicrobial activity | calcein release from liposomes ([1]; S. aureus-mimetic liposomes (cardiolipin:phosphatidylglycerol 1:3)): released calcein | calcein release from liposomes ([1]; mammalian-mimetic liposomes (phosphatidylcholine:phosphatidylethanolamine:cholesterol 4:2:3)): neither D-form nor L-form KLKLLLLLKLK-NH2 was able to release calcein
